The experiment deals with B-Raf mediated phosphorylation of MEK1. The experiment in a line: Cellular assay of B-Raf mediated phosphorylation of MEK1 in co-transfected 3T3 cells. It is filed as cell-based. The settings on record: Mus musculus, NIH3T3, 2 h, two hours exposure, anti-phospho-MEK1/2 immunoassay. The method, then:
B-Raf mediated phosphorylation of MEK1 was measured in a cellular assay. Expression constructs for B-Raf and FLAG-tagged MEK1 (a B-raf substrate) were co-transfected in 3T3 cells and gene expression was induced using the GeneSwitch™ system for inducible mammalian expression (Invitrogen). Four hours following the induction of expression of B-Raf and MEK1, cells were exposed to the test compounds for two hours. The cells were then lysed, and then an immunoassay was performed using anti-phospho-MEK1/2 (Cell Signaling Technlogoies) to detect the percent inhibition of MEK1 phosphorylation.

Setting [1] is: 3T3 cells co-transfected with B-Raf and FLAG-tagged MEK1, read-out: Potency (IC50, inhibition of MEK1 phosphorylation).
[2] abbreviates: read-out: Potency (IC50, inhibition of MEK1 phosphorylation), 3T3 cells co-transfected with B-Raf and FLAG-tagged MEK1.

Structures are written as SMILES. Like-named read-outs stand apart in the source and are kept apart here.

As for `CCn1cc(-c2ccnc3[nH]ccc23)c(-c2cccc(NC(=O)Nc3c(F)cccc3F)c2)n1` [Example 6, N-(2,6-Difluorophenyl)-N-{3-[1-ethyl-4-(1H-pyrrolo[2,3-b]pyridin-4-yl)-1H-pyrazol-3-yl]phenyl}urea], under setting [1], the IC50 was less than 6 µM.
Consider `CCn1cc(-c2ccnc3[nH]cc(Cl)c23)c(-c2cccc(NC(=O)Nc3ccccc3)c2)n1` [Example 13, N-{3-[4-(3-Chloro-1H-pyrrolo[2,3-b]pyridin-4-yl)-1-ethyl-1H-pyrazol-3-yl]phenyl}-N-phenylurea], for which, under setting [1], the IC50 was greater than 6 µM.
As to `CCn1cc(-c2ccnc3[nH]ccc23)c(-c2cccc(NC(=O)NC3CCCCC3)c2)n1` [Example 8, N-Cyclohexyl-N-{3-[1-ethyl-4-(1H-pyrrolo[2,3-b]pyridin-4-yl)-1H-pyrazol-3-yl]phenyl}urea], the 50% inhibitory concentration (IC50) under setting [2] is less than 6 µM.
Consider `CCn1cc(-c2ccnc3[nH]cc(Br)c23)c(-c2cccc(NC(=O)Nc3ccccc3)c2)n1` [Example 14, N-{3-[4-(3-Bromo-1H-pyrrolo[2,3-b]pyridin-4-yl)-1-ethyl-1H-pyrazol-3-yl]phenyl}-N-phenylurea], for which the IC50 under setting [1] is less than 6 µM.
Regarding `CCn1cc(-c2ccnc3[nH]ccc23)c(-c2cccc(NC(=O)NCc3ccccc3)c2)n1` [Example 9, N-{3-[1-Ethyl-4-(1H-pyrrolo[2,3-b]pyridin-4-yl)-1H-pyrazol-3-yl]phenyl}-N-(phenylmethyl)urea], under setting [2], the IC50 was less than 6 µM.

The IC50 is the midpoint of a concentration-inhibition curve.
